ChEMBL document CHEMBL1201862, “PubChem BioAssay data set” (2004)
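Protocol summary: plate cells (96-well), add compound at 5 concentrations, incubate 48 h, interpolate endpoints linearly. GI50 = concentration required for 50% inhibition of growth.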 Activity calls are given as the source filed them. No stated cut-off is given here; in the data, active = GI50 up to about 1.1 µM and inactive = higher.

Experiments:
Test in all cases: inhibition of tumour cell growth, NCI panel, 48 h
[1] = system: MOLT-4
[2] = system: SF-539
[3] = system: CCRF-CEM
[4] = system: IGROV-1
[5] = system: K562
[6] = system: SW-620
[7] = system: Hs-578T
[8] = system: Malme-3M
[9] = system: LOX IMVI
[10] = system: U-251
[11] = system: SK-MEL-28
[12] = system: NCI-H522
[13] = system: UACC-62
[14] = system: HT-29
[15] = system: NCI-H460
[16] = system: MCF7
[17] = system: T47D
[18] = system: OVCAR-4
[19] = system: HCT-116
[20] = system: SNB-19

Row | Compound | GI50 [1] | GI50 [2] | GI50 [3] | GI50 [4] | GI50 [5] | GI50 [6] | GI50 [7] | GI50 [8] | GI50 [9] | GI50 [10] | GI50 [11] | GI50 [12] | GI50 [13] | GI50 [14] | GI50 [15] | GI50 [16] | GI50 [17] | GI50 [18] | GI50 [19] | GI50 [20]
1 | O=[N+]([O-])c1cccnc1NCC1(CO)CC(Cc2ccccc2)C1 (stereo not drawn) | > 100 µM (inactive) | > 100 µM (inactive) | > 100 µM (inactive) | > 100 µM (inactive) | > 100 µM (inactive) | > 100 µM (inactive) | > 100 µM (inactive) | > 100 µM (inactive) | > 100 µM (inactive) | > 100 µM (inactive) | > 100 µM (inactive) | > 100 µM (inactive) | > 100 µM (inactive) | > 100 µM (inactive) | > 100 µM (inactive) | > 100 µM (inactive) | > 100 µM (inactive) | > 100 µM (inactive) | > 100 µM (inactive) | –
2 | Nc1nc(Cl)c(C=O)c(NCC2(CO)CC(CCc3ccccc3)C2)n1 (stereo not drawn) | 2.62 µM (inactive) | 12.4 µM (inactive) | 7.85 µM (inactive) | 1.74 µM (inactive) | 1.88 µM (inactive) | 4.1 µM (inactive) | 22.9 µM (inactive) | 14.1 µM (inactive) | 2.95 µM (inactive) | 13.6 µM (inactive) | 4 µM (inactive) | 1.71 µM (inactive) | 5.38 µM (inactive) | 12.4 µM (inactive) | 16.7 µM (inactive) | 9.16 µM (inactive) | 1.34 µM (inactive) | 2 µM (inactive) | 13.7 µM (inactive) | 13.7 µM (inactive)
3 | COc1ccc2c(c1)CCCN1Cc3ccccc3CC21 (stereo not drawn) | 54.2 µM (inactive) | 92.7 µM (inactive) | 77.1 µM (inactive) | 49.4 µM (inactive) | 31.3 µM (inactive) | 65.6 µM (inactive) | > 100 µM (inactive) | 41.9 µM (inactive) | 43.5 µM (inactive) | 75.2 µM (inactive) | 62.1 µM (inactive) | > 100 µM (inactive) | 91.6 µM (inactive) | 32.7 µM (inactive) | 76 µM (inactive) | > 100 µM (inactive) | 33.7 µM (inactive) | > 100 µM (inactive) | 52.7 µM (inactive) | 67.1 µM (inactive)
4 | C[C@]12CC/C(=N\O)C=C1CC[C@@H]1[C@@H]2CC[C@]2(C)C(=N/O)/C(=C/c3ccc([N+](=O)[O-])cc3)C[C@@H]12 | 2.55 µM (inactive) | 10.4 µM (inactive) | 2.5 µM (inactive) | 2.86 µM (inactive) | 3.37 µM (inactive) | 5.42 µM (inactive) | 3.5 µM (inactive) | 15 µM (inactive) | 5.11 µM (inactive) | – | 9.25 µM (inactive) | 2.59 µM (inactive) | 3.52 µM (inactive) | 4.94 µM (inactive) | 44.8 µM (inactive) | 3.59 µM (inactive) | 1.05 µM (active) | 4.73 µM (inactive) | 3.07 µM (inactive) | 7.5 µM (inactive)
5 | COc1ccc(OC)c2c(Nc3ccc(S(=O)(=O)O)c4cc(S(=O)(=O)O)cc(S(=O)(=O)O)c34)cc(C)nc12 | > 100 µM (inactive) | > 100 µM (inactive) | > 100 µM (inactive) | > 100 µM (inactive) | > 100 µM (inactive) | > 100 µM (inactive) | > 100 µM (inactive) | > 100 µM (inactive) | > 100 µM (inactive) | > 100 µM (inactive) | > 100 µM (inactive) | > 100 µM (inactive) | > 100 µM (inactive) | > 100 µM (inactive) | > 100 µM (inactive) | > 100 µM (inactive) | > 100 µM (inactive) | > 100 µM (inactive) | > 100 µM (inactive) | –
6 | O=C(O)CCCc1nc2c(n1-c1ccccc1)C(=O)c1ccccc1C2=O | 68.4 µM (inactive) | 94 µM (inactive) | 40.7 µM (inactive) | > 100 µM (inactive) | 69.8 µM (inactive) | > 100 µM (inactive) | > 100 µM (inactive) | 21.6 µM (inactive) | > 100 µM (inactive) | > 100 µM (inactive) | > 100 µM (inactive) | 14.2 µM (inactive) | 32.8 µM (inactive) | – | > 100 µM (inactive) | 32.6 µM (inactive) | > 100 µM (inactive) | 23.9 µM (inactive) | 49.1 µM (inactive) | > 100 µM (inactive)
7 | CCOC(=O)N/N=C(/N)c1cccc(Br)c1 | > 100 µM (inactive) | > 100 µM (inactive) | > 100 µM (inactive) | > 100 µM (inactive) | > 100 µM (inactive) | – | > 100 µM (inactive) | > 100 µM (inactive) | > 100 µM (inactive) | – | – | > 100 µM (inactive) | > 100 µM (inactive) | > 100 µM (inactive) | > 100 µM (inactive) | > 100 µM (inactive) | > 100 µM (inactive) | > 100 µM (inactive) | > 100 µM (inactive) | 78.9 µM (inactive)
